The subject of assay [1] is human osteosarcoma cell line SJSA-1. The assay can be described thus: Inhibition of proliferation of human osteosarcoma cell line SJSA-1 (DAPI staining, In Cell Analyzer). The note with it: Homo sapiens, SJSA-1, 72 h, read-out: IC50 (nM), inhibitory activity on proliferation of human osteosarcoma cell line SJSA-1, SJSA-1, incubated 72 h.
The target of a further assay is T1, MDM2 (Homo sapiens, UniProt Q00987).
T1 construct: made in house
In words: Inhibition test of MDM2-P53 (GST-MDM2, Biotin-P53, Anti-GST-Tb, SA-XL665). It counts as binding. The procedure, abridged: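 Binding was measured by TR-FRET with GST-MDM2 at 4 nM final in PBS with 0.1% BSA, 5 mM DTT and 1 mM AEBSF. Compounds were tested as twelve-point 5-fold dilutions and incubated with the detection mix for 90 min at 25 °C with shaking before plate-reader reading and curve fitting.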

T1 sequence (Q00987 whole entry): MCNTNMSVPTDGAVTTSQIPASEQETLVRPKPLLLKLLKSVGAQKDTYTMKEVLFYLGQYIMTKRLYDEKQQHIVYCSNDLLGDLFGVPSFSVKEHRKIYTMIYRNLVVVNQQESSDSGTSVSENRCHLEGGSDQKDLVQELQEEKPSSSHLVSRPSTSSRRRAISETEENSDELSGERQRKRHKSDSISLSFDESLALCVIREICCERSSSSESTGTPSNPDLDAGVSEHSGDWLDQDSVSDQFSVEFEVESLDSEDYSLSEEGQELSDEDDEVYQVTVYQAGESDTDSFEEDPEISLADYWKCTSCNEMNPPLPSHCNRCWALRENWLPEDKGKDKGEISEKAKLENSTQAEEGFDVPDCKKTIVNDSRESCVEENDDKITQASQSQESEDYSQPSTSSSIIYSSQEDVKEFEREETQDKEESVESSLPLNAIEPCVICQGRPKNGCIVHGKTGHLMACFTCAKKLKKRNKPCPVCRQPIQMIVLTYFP

In the case of `COc1cc(N(C)C)ncc1-c1nc2c(n1C(C)C)[C@]1(C(=O)Nc3cc(Cl)ccc31)N(c1cc(Cl)cnc1C)C2=O` [Example R-155, (R)-6-chloro-5′-(5-chloro-2-methylpyridin-3-yl)-2′-(6-(dimethylamino)-4-methoxypyridin-3-yl)-3′-isopropyl-3′H-spiro[dihydroindole-3,4′-pyrrolo[3,4-d]imidazole]-2,6′(5′H)-dione], the IC50 in assay [1] was 1520 nM; on MDM2 it was 96.4 nM.
On the same counts, the results for `COc1nc(N(C)C)ccc1-c1nc2c(n1C(C)C)[C@]1(C(=O)Nc3cc(Cl)ccc31)N(c1cc(Cl)ccc1C)C2=O` [Example R-157, (R)-6-chloro-5′-(5-chloro-2-methylphenyl)-2′-(6-(dimethylamino)-2-methoxypyridin-3-yl)-3′-isopropyl-3′H-spiro[dihydroindole-3,4′-pyrrolo[3,4-d]imidazole]-2,6′(5′H)-dione] are 1800 nM and 370 nM.
On the same counts, the results for `COc1nc(C2CC2)ncc1-c1nc2c(n1C(C)C)[C@]1(C(=O)Nc3cc(Cl)ccc31)N(c1cc(Cl)cnc1C)C2=O` [Example R-159, (R)-6-chloro-5′-(5-chloro-2-methylpyridin-3-yl)-2′-(2-cyclopropyl-4-methoxypyrimidin-5-yl)-3′-isopropyl-3′H-spiro[dihydroindole-3,4′-pyrrolo[3,4-d]imidazole]-2,6′(5′H)-dione] are 5330 nM and 468 nM.
On the same counts, the results for `COc1cc(N(C)CCO)ccc1-c1nc2c(n1C(C)C)[C@]1(C(=O)Nc3cc(Cl)ccc31)N(c1cc(Cl)ccc1C)C2=O` [Example R-162, (R)-6-chloro-5′-(5-chloro-2-methylphenyl)-2′-(4-((2-hydroxyethyl)(methyl)amino)-2-methoxyphenyl)-3′-isopropyl-3′H-spiro[dihydroindole-3,4′-pyrrolo[3,4-d]imidazole]-2,6′(5′H)-dione] are 782 nM and 120 nM.
`COc1cc(OCCF)ncc1-c1nc2c(n1C(C)C)[C@]1(C(=O)Nc3cc(Cl)ccc31)N(c1cccc(Cl)c1)C2=O` [Example R-177, (R)-6-chloro-5′-(3-chlorophenyl)-2′-(6-(2-fluoroethoxy)-4-methoxypyridin-3-yl)-3′-isopropyl-3′H-spiro[dihydroindole-3,4′-pyrrolo[3,4-d]imidazole]-2,6′(5′H)-dione]: the IC50 in assay [1] was 4250 nM; against MDM2, 109 nM.
On the same counts, the results for `CCOc1ncc(-c2nc3c(n2C(C)C)[C@]2(C(=O)Nc4cc(Cl)ccc42)N(c2cc(F)cc(Cl)c2)C3=O)c(OC)n1` [Example R-180, (R)-6-chloro-5′-(3-chloro-5-fluorophenyl)-2′-(2-ethoxy-4-methoxypyrimidin-5-yl)-3′-isopropyl-3′H-spiro[dihydroindole-3,4′-pyrrolo[3,4-d]imidazole]-2,6′(5′H)-dione] are 2170 nM and 679 nM.
On the same counts, the results for `COc1ncc(-c2nc3c(n2C(C)C)[C@@]2(C(=O)Nc4cc(Cl)ccc42)N(c2ccc(F)c(Cl)c2)C3=O)c(OC)n1` [Example S-3, (S)-6-chloro-5′-(3-chloro-4-fluorophenyl)-2′-(2,4-dimethoxypyrimidin-5-yl)-3′-isopropyl-3′H-spiro[dihydroindole-3,4′-pyrrolo[3,4-d]imidazole]-2,6′(5′H)-dione] are 174 nM and 4.92 nM.
In the same order, the values of `COc1cc(F)ccc1-c1nc2c(n1C(C)C)[C@@]1(C(=O)Nc3cc(Cl)ccc31)N(c1cc(Cl)ccc1C)C2=O` [Example S-4, (S)-6-chloro-5′-(5-chloro-2-methylphenyl)-2′-(4-fluoro-2-methoxyphenyl)-3′-isopropyl-3′H-spiro[dihydroindole-3,4′-pyrrolo[3,4-d]imidazole]-2,6′(5′H)-dione] are 7.92 nM and 3.37 nM.
Consider `COc1ccccc1-c1nc2c(n1C(C)C)[C@@]1(C(=O)Nc3cc(Cl)ccc31)N(c1cc(Cl)ccc1C)C2=O` [Example S-5, (S)-6-chloro-5′-(5-chloro-2-methylphenyl)-3′-isopropyl-2′-(2-methoxyphenyl)-3′H-spiro[dihydroindole-3,4′-pyrrolo[3,4-d]imidazole]-2,6′(5′H)-dione], for which the IC50 in assay [1] stood at 25.4 nM; on MDM2 it was 3.22 nM.
On the same counts, the results for `CCc1ccccc1-c1nc2c(n1C(C)C)[C@@]1(C(=O)Nc3cc(Cl)ccc31)N(c1cc(Cl)ccc1C)C2=O` [Example S-7, (S)-6-chloro-5′-(5-chloro-2-methylphenyl)-2′-(2-ethylphenyl)-3′-isopropylisopropyl-3′H-spiro[dihydroindole-3,4′-pyrrolo[3,4-d]imidazole]-2,6′(5′H)-dione] are 1270 nM and 73.2 nM.
On the same counts, the results for `COc1ccc(-c2nc3c(n2C(C)C)[C@@]2(C(=O)Nc4cc(Cl)ccc42)N(c2cc(Cl)ccc2C)C3=O)c(OC)n1` [Example S-8, (S)-6-chloro-5′-(5-chloro-2-methylphenyl)-2′-(2,6-dimethoxypyridin-3-yl)-3′-isopropyl-3′H-spiro[dihydroindole-3,4′-pyrrolo[3,4-d]imidazole]-2,6′(5′H)-dione] are 10.3 nM and 3.29 nM.
In the same order, the values of `COc1cnccc1-c1nc2c(n1C(C)C)[C@@]1(C(=O)Nc3cc(Cl)ccc31)N(c1cc(Cl)ccc1C)C2=O` [Example S-10, (S)-6-chloro-5′-(5-chloro-2-methylphenyl)-3′-isopropyl-2′-(3-methoxypyridin-4-yl)-3′H-spiro[dihydroindole-3,4′-pyrrolo[3,4-d]imidazole]-2,6′(5′H)-dione] are 124 nM and 2.77 nM.
For the molecule `COc1cc(C#N)ccc1-c1nc2c(n1C(C)C)[C@@]1(C(=O)Nc3cc(Cl)ccc31)N(c1cc(Cl)ccc1C)C2=O` [Example S-12, (S)-4-(6-chloro-5′-(5-chloro-2-methylphenyl)-3′-isopropyl-2,6′-dioxo-5′,6′-dihydro-3′H-spiro[dihydroindole-3,4′-pyrrolo[3,4-d]imidazole]-2′-yl)-3-methoxybenzonitrile], the values for the IC50 (in assay [1]; against MDM2) were 5.27 nM and 3.55 nM, respectively.
On the same counts, the results for `COc1ccc(C#N)cc1-c1nc2c(n1C(C)C)[C@@]1(C(=O)Nc3cc(Cl)ccc31)N(c1cc(Cl)ccc1C)C2=O` [Example S-13, (S)-3-(6-chloro-5′-(5-chloro-2-methylphenyl)-3′-isopropyl-2,6′-dioxo-5′,6′-dihydro-3′H-spiro[dihydroindole-3,4′-pyrrolo[3,4-d]imidazole]-2′-yl)-4-methoxybenzonitrile] are 5.95 nM and 2.55 nM.
As for `CCc1ccc(Cl)cc1N1C(=O)c2nc(-c3cnc(OC)nc3OC)n(C(C)C)c2[C@@]12C(=O)Nc1cc(Cl)ccc12` [Example S-15, (S)-6-chloro-5′-(5-chloro-2-ethylphenyl)-2′-(2,4-dimethoxypyrimidin-5-yl)-3′-isopropyl-3′H-spiro[dihydroindole-3,4′-pyrrolo[3,4-d]imidazole]-2,6′(5′H)-dione], the IC50 in assay [1] was 10.9 nM; against MDM2 it was 1.62 nM.
For `COc1ncc(-c2nc3c(n2C(C)C)[C@@]2(C(=O)Nc4cc(Cl)ccc42)N(c2cc(Cl)cn(C)c2=O)C3=O)c(OC)n1` [Example S-16, (S)-6-chloro-5′-(5-chloro-1-methyl-2-oxo-1,2-dihydropyridin-3-yl)-2′-(2,4-dimethoxypyrimidin-5-yl)-3′-isopropyl-3′H-spiro[dihydroindole-3,4′-pyrrolo[3,4-d]imidazole]-2,6′(5′H)-dione], the IC50 in assay [1] worked out at 3560 nM; against MDM2, 3.39 nM.
